Test results reported in ChEMBL document CHEMBL5154941, “Structural Modifications of Nimodipine Lead to Novel PDE1 Inhibitors with Anti-pulmonary Fibrosis Effects” (J Med Chem, 2022).

Experiments:
[1] = biological target: T1, Dual specificity calcium/calmodulin-dependent 3',5'-cyclic nucleotide phosphodiesterase 1C (Homo sapiens, UniProt Q14123); experiment: Inhibition of PDE1C (147 to 531 residues) (unknown origin) expressed in Escherichia coli BL21 at 1000 nM [3H]-cGMP as substrate measured for 15 mins by liquid scintillation counter method relative to control
T1 sequence (Q14123 whole entry, the tested form may be a part): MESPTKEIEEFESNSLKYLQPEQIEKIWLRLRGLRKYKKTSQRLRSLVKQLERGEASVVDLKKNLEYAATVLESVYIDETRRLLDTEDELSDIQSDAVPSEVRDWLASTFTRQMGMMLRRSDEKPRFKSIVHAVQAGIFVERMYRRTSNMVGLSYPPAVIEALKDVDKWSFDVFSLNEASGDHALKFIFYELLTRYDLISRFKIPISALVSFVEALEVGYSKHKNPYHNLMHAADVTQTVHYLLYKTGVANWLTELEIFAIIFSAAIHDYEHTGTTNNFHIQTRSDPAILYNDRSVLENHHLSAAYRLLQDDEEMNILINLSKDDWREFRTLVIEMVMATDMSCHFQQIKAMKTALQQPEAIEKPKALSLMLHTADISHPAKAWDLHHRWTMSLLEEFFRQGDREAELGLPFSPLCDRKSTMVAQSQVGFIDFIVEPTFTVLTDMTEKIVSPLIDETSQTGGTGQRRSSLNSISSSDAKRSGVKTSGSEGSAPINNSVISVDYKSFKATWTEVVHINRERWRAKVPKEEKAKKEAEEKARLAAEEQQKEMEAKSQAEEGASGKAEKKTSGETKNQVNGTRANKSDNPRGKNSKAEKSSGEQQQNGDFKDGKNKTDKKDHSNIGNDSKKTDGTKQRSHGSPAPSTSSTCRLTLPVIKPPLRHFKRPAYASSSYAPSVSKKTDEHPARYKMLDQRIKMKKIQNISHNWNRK

[2] = biological target: T1, Dual specificity calcium/calmodulin-dependent 3',5'-cyclic nucleotide phosphodiesterase 1C; experiment: Inhibition of PDE1C (147 to 531 residues) (unknown origin) expressed in Escherichia coli BL21 using [3H]-cGMP as substrate measured for 15 mins by liquid scintillation counter method

Row | inhibition [1] [%] | Compound | IC50 [2] [µM]
1 | 25 | COC(=O)C1=C(C)NC(C)=C(C(=O)OC)C1c1cccc(C#N)c1 | –
2 | – | CCOC(=O)C1=C(C)NC(C)=C(C(=O)OC)C1c1cccc([N+](=O)[O-])c1 (stereo not drawn) [NITRENDIPINE] | 1.85
3 | – | COC(=O)C1=C(C)NC(C)=C(C(=O)OC)C1c1ccccc1[N+](=O)[O-] [NIFEDIPINE] | > 10
